Test system: NOX2
Test: NOX2 expression in LPS-stimulated primary glial cultures (western blot)
Type: cell-based, rat
Conditions: 30 μM, LPS 1 μg/mL 24 h (LPS alone 65.3%)
Method: TNFα is considered one of the most important pro-inflammatory cytokines. […] The production of TNFα induced by LPS was reduced by 33% at 10 μM and by 50% at 30 μM. […] To further confirm the anti-inflammatory potential of compound 5c we measured the expression of thre NOX2 enzyme, since this isoform has been widely described as being specific tomicroglial cells. As depicted in Fig. 6F, LPS (1 μg/mL) stimulation of primary glial cultures during 24 h increased the expression of NOX2 by 65.3% (p < 0.01) compared to basal conditions.
Figure 6 Nitrites (A), TNFα (B), iNOS (C) and NOX activity (E) blockade (D) and NOX2 production (F) by 5c in primary glial cultures stimulated with LPS (1 μg/mL), HO-1 expression induced by this compound after 24 h. […] NOX activity was measured after 4 h co-treatment with LPS and compound 5c. […]
After treatment, mixed glial cells were washed with cold PBS and lysed in 100 μl ice-cold lysis buffer (1% Nonident P-40, 10% glycerol, 137 mM NaCl, 20 mM Tris HCl pH 7.5, 1 μg/ml leupeptin, 1 mM phenylmethylsulfonyl fluoride, 20 mM NaF, 1 mM sodium pyrophosphate, and 1 mM Na3VO4). […] Peroxidase-conjugated secondary antibodies (1:10000) were used to detect proteins by enhanced chemiluminescence detected by Advance Western-blotting Detection Kit (GE Healthcare, Barcelona, Spain). […]

SMILES: COc1cccc(C2C(C#N)=C(N)Oc3n[nH]c(C)c32)c1 (stereo not shown) [Compound 5c, 6-Amino-4-(3-methoxyphenyl)-3-methyl-2,4-dihydropyrano[2,3-c]pyrazole-5-carbonitrile]
- NOX2 expression increase compared to basal conditions in presence of LPS: 11.1%

From PMC5374710, “Discovery of the first dual GSK3β inhibitor/Nrf2 inducer. A new multitarget therapeutic strategy for Alzheimer’s disease” (Scientific Reports, 2017)
